Laboratory results taken from patent US8071592B2 (priority 2006, dated 2011).
Counter-ions that a name gives are not always drawn. Like-named read-outs stand apart in the source and are kept apart here.

Columns and labels:
[1] = tested on: Mycobacterium tuberculosis H37Rv; experiment: Mycobacterium tuberculosis H37Rv Inhibition Assay (resazurin, MIC); assay type: cell-based; conditions: 144 h
[2] = tested on: Gram-positive organisms (Staphylococcus aureus, Streptococcus pneumoniae, Streptococcus pyogenes, Enterococcus faecalis, Enterococcus faecium) and …; assay type: cell-based; conditions: against a strain of at least one of the organisms listed; tested in at least one exemplified salt form
[3] = ATCC 25618 / H37Rv, H37Rv strain (ATCC25618), Middlebrook 7H9+ADC medium, six days at 37° C., resazurin fluorescence after 48 hours, read-out: MIC value
[4] = ATCC 25618 / H37Rv, read-out: MIC value, H37Rv strain (ATCC25618), Middlebrook 7H9+ADC medium, six days at 37° C., resazurin fluorescence after 48 hours

SMILES: O=C1CSc2ccc(CNC[C@@H]3C[C@H](O)CN(CCn4c(=O)ccc5ccc(F)cc54)C3)nc2N1 (racemic) [Example 158]
- MIC [1, 3]: ≤ 4 µg/mL

SMILES: O=c1cnc2ccc(F)cc2n1CCN1CC[C@H](NCc2cc3c(nn2)OCCO3)[C@H](O)C1 (single isomer, unassigned) [Example 193]
- MIC [1, 3]: ≤ 4 µg/mL

SMILES: Cl.O=c1ccc2ccc(F)cc2n1CCN1CCC(NCc2cc3c(cn2)OCCO3)CC1 [Example 2, 1-(2-{4-[(2,3-dihydro[1,4]dioxino[2,3-c]pyridin-7-ylmethyl)amino]-1-piperidinyl}ethyl)-7-fluoro-2(1H)-quinolinone Hydrochloride]
- MIC [1, 3]: ≤ 4 µg/mL

SMILES: O=c1ccc2ncc(F)cc2n1CCN1CCC(NCc2cc3c(cn2)OCCO3)CC1 [Example 7, 1-(2-{4-[(2,3-Dihydro[1,4]dioxino[2,3-c]pyridin-7-ylmethyl)amino]-1-piperidinyl}ethyl)-7-fluoro-1,5-naphthyridin-2(1H)-one Hydrochloride]
- MIC [1, 3]: ≤ 4 µg/mL

SMILES: O=c1ccc2ncc(F)cc2n1CCN1CCC(NCc2cc3c(nn2)OCCO3)CC1 [Example 9, Hydrochloride]
- MIC ([1]; ATCC25618|H37RV, H37Rv strain (ATCC25618), Middlebrook 7H9+ADC medium, six days at 37° C., resazurin fluorescence after 48 hours, read-out: MIC value): ≤ 4 µg/mL

SMILES: COc1ccc2ccc(=O)n(CCN3CCC(NCc4cc5c(nn4)OCCO5)CC3)c2n1 [Example 17, 1-(2-{4-[(6,7-dihydro[1,4]dioxino[2,3-c]pyridazin-3-ylmethyl)amino]-1-piperidinyl}ethyl)-7-(methyloxy)-1,8-naphthyridin-2(1H)-one Dihydrochloride]
- MIC [1, 3]: ≤ 4 µg/mL

SMILES: O=c1cnc2ccc(F)cc2n1CCN1CCC(NCc2cc3c(cn2)OCCO3)CC1 [Example 20, 1-(2-{4-[(2,3-dihydro[1,4]dioxino[2,3-c]pyridin-7-ylmethyl)amino]-1-piperidinyl}ethyl)-7-fluoro-2(1H)-quinoxalinone Dihydrochloride]
- MIC [1, 3]: ≤ 4 µg/mL

SMILES: COc1ccc2ncc(=O)n(CCN3CCC(NCc4cc5c(cn4)OCCO5)CC3)c2n1 [Example 37, 4-(2-{4-[(2,3-dihydro[1,4]dioxino[2,3-c]pyridin-7-ylmethyl)amino]-1-piperidinyl}ethyl)-6-(methyloxy)pyrido[2,3-b]pyrazin-3(4H)-one Dihydrochloride]
- MIC [1, 3]: ≤ 4 µg/mL

SMILES: O=c1cnc2ccc(F)cc2n1CCN1CCC(NCc2cc3c(cn2)OCC3)CC1 [Example 38, 1-(2-{4-[(2,3-dihydrofuro[2,3-c]pyridin-5-ylmethyl)amino]-1-piperidinyl}ethyl)-7-fluoro-2(1H)-quinoxalinone Dihydrochloride]
- MIC [1, 3]: ≤ 4 µg/mL

SMILES: COc1cnc2ncc(=O)n(CCN3CCC(NCc4cc5c(cn4)OCCO5)CC3)c2c1.O=CO.O=CO [Example 51B, 1-(2-{4-[(2,3-dihydro[1,4]dioxino[2,3-c]pyridin-7-ylmethyl)amino]-1-piperidinyl}ethyl)-7-(methyloxy)pyrido[2,3-b]pyrazin-2(1H)-one diformate]
- MIC [1, 3]: ≤ 4 µg/mL

SMILES: COc1ccc2ccc(=O)n(CCN3C[C@@H](CNCc4ccc5c(n4)NC(=O)CO5)[C@@H](O)C3)c2c1 [Example 53, 6-({[((3R,4R)-4-hydroxy-1-{2-[7-(methyloxy)-2-oxo-1(2H)-quinolinyl]ethyl}-3-pyrrolidinyl)methyl]amino}methyl)-2H-pyrido[3,2-b][1,4]oxazin-3(4H)-one dihydrochloride]
- MIC [1, 4]: ≤ 4 µg/mL

SMILES: O=c1ccc2c(F)cc3c(c2n1CCN1CCC(NCc2cc4c(cn2)OCCO4)CC1)OCCO3 [Example 57, 10-(2-{4-[(2,3-dihydro[1,4]dioxino[2,3-c]pyridin-7-ylmethyl)amino]-1-piperidinyl}ethyl)-6-fluoro-2,3-dihydro[1,4]dioxino[2,3-h]quinolin-9(10H)-one hydrochloride]
- MIC [1, 4]: ≤ 4 µg/mL

SMILES: COc1ccc2ccc(=O)n(CCN3C[C@H](CNCc4cc5c(cn4)OCCO5)[C@H](O)C3)c2c1 [Example 74, 1-[2-((3S,4S)-3-{[(2,3-dihydro[1,4]dioxino[2,3-c]pyridin-7-ylmethyl)amino]methyl}-4-hydroxy-1-pyrrolidinyl)ethyl]-7-(methyloxy)-2(1H)-quinolinone Hydrochloride]
- MIC [1, 4]: ≤ 4 µg/mL

SMILES: O=c1cnc2c(F)cc(F)cc2n1CCN1CCC(NCc2cc3c(nn2)OCCO3)CC1 [Example 120]
- MIC [1, 3]: ≤ 4 µg/mL

SMILES: Cc1cc(=O)n(CCN2CCC(NCc3cc4c(cn3)OCCO4)CC2)c2cc(F)ccc12 [Example 131, 1-(2-{4-[(2,3-Dihydro[1,4]dioxino[2,3-c]pyridin-7-ylmethyl)amino]-1-piperidinyl}ethyl)-7-fluoro-4-methyl-2(1H)-quinolinone Dihydrochloride]
- MIC [1, 4]: ≤ 4 µg/mL

SMILES: O=c1ccc2ccc(F)cc2n1CCN1CC[C@@H](O)[C@@H](CNCc2cc3c(cn2)OCCO3)C1 [Example 138, 1-[2-((3S,4R)-3-{[(2,3-Dihydro[1,4]dioxino[2,3-c]pyridin-7-ylmethyl)amino]methyl}-4-hydroxy-1-piperidinyl)ethyl]-7-fluoro-2(1H)-quinolinone Dihydrochloride]
- MIC [1, 4]: ≤ 4 µg/mL

SMILES: O=c1c(F)cc2ccc(F)cc2n1CCN1CCC(NCc2cc3c(cn2)OCCO3)CC1 [Example 180]
- MIC [1, 3]: ≤ 4 µg/mL

SMILES: CC(C)(O)c1c(F)cnc2ccc(=O)n(CCN3CCC(NCc4ccc5c(n4)NC(=O)CO5)CC3)c12 [Example 183]
- MIC [2]: 16 µg/mL

SMILES: COc1ccc2ncc(=O)n(CCN3C[C@H](CNCc4cc5c(cn4)OCCO5)[C@@H](O)C3)c2n1 [Example 225]
- MIC [1, 3]: ≤ 4 µg/mL

SMILES: COc1ccc2ncc(=O)n(CCN3C[C@H](CNCc4cc5c(cn4)OCCO5)[C@H](O)C3)c2c1 [Example 226]
- MIC [1, 3]: ≤ 4 µg/mL

SMILES: COc1ccc2ncc(=O)n(CCN3C[C@H](CNCc4ccn5ccc(=O)nc5c4)[C@H](O)C3)c2n1 [Example 272]
- MIC [2]: > 16 µg/mL

SMILES: O=c1ccc2ncccc2n1CCN1CCC(NCc2cc3ccccc3o2)CC1 [Example 282]
- MIC [1, 3]: ≤ 4 µg/mL

SMILES: O=c1ccc2ccc(F)cc2n1CCN1CCC(NCc2nc3ccccc3s2)CC1 [Example 287]
- MIC [1, 3]: ≤ 4 µg/mL

SMILES: O=c1ccc2ccccc2n1CCN1CCC(NCc2cc3ccccc3o2)CC1 [Example 288]
- MIC [1, 3]: ≤ 4 µg/mL

SMILES: O=c1ccc2ccccc2n1CCN1CCC(NCc2cc3cc(Cl)ccc3s2)CC1 [Example 289]
- MIC [1, 3]: ≤ 4 µg/mL

SMILES: COc1ccc2ccc(=O)n(CCN3CCC(NCc4ccc5nnn(C)c5c4)CC3)c2c1 [Example 302]
- MIC [1, 3]: ≤ 4 µg/mL
